Results reported in PMC2693028 (ChemMedChem, 2008).
In brackets after ≈: the same amount, converted by molar mass. Several values for one entry are separate records, joined by “and”; a condition that tells them apart may be missing. Equal values may be shown once. Read-outs that look alike come from different tables or passages of the source.

How the values were obtained:
ΔANR B. anthracis = experiment: microbe, parasite or virus in culture; format: cell-based, Bacillus anthracis
[1] = biological target: Enoyl reducase (ENR) from Bacillus anthracis (BaENR) (Bacillus anthracis, UniProt A0A6L8PBX8); experiment: biochemical; settings: for inhibition at 1 µM: read-out: % inhibition at 1μM
Chain of Enoyl reducase (ENR) from Bacillus anthracis (BaENR) (A0A6L8PBX8 1-256): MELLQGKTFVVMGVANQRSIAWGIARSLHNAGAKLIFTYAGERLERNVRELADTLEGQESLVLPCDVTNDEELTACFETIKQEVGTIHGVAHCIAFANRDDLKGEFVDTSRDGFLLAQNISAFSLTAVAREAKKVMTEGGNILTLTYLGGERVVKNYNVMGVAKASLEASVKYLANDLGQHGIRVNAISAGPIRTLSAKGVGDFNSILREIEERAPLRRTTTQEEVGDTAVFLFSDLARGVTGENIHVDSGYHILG

Molecule | MIC (ΔANR B. anthracis; Bacillus anthracis) [µg/mL] | IC50 ([1]; IC50) | inhibition at 1 µM [1] [%] | further results
3-[3-(2-Hydroxy-4-propylphenoxy)phenyl]propionic acid [Compound 50] | – | – | – | MIC (ΔANR B. anthracis): 14.9 µg/mL; % inhibition at 1μM [1]: 17.9%
Oc1ccc(Oc2ccccc2)c(O)c1 [Compound 1, 4-Phenoxybenzene-1,3-diol] | 64 (≈ 317 µM) | 6.3 ± 0.4 µM | – | –
O=[N+]([O-])c1ccc(Oc2ccccc2)c(O)c1 [Compound 2, 5-Nitro-2-phenoxyphenol] | 5.8 (≈ 25.1 µM) | > 50 µM | – | –
Oc1ccc(Oc2ccc(Cl)cc2O)cc1 [Compound 3, 5-Chloro-2-(4-hydroxyphenoxy)phenol] | > 64 | – | 2.6 | –
O=[N+]([O-])c1ccc(Oc2ccc(Cl)cc2O)cc1 [Compound 4, 5-Chloro-2-(4-nitrophenoxy)phenol] | 3.3 (≈ 12.4 µM) | – | – | –
O=[N+]([O-])c1ccccc1Oc1ccc(Cl)cc1O [Compound 5, 5-Chloro-2-(2-nitrophenoxy)phenol] | 13.3 (≈ 50.1 µM) | 7.7 ± 0.7 µM | – | –
Oc1cc(Cl)ccc1Oc1ccc(-c2ccccc2)cc1 [Compound 7, 2-(Biphenyl-4-yloxy)-5-chlorophenol] | 1.9 (≈ 6.4 µM) | > 6.25 µM | – | –
CCCc1ccc(Oc2ccc([N+](=O)[O-])cc2)c(O)c1 [Compound 8, 2-(4-Nitrophenoxy)-5-propylphenol] | 3.4 (≈ 12.4 µM) | 1.1 ± 0.1 µM | – | –
CCCc1ccc(Oc2cccc([N+](=O)[O-])c2)c(O)c1 [Compound 9, 2-(3-Nitrophenoxy)-5-propylphenol] | 1.7 (≈ 6.22 µM) | > 0.8 µM | – | –
CCCc1ccc(Oc2ccc([N+](=O)[O-])cc2[N+](=O)[O-])c(O)c1 [Compound 10, 2-(2,4-Dinitrophenoxy)-5-propylphenol] | 4 (≈ 12.6 µM) | 3.6 ± 0.8 µM | – | –
CCCc1ccc(Oc2ccc(C#N)cc2Cl)c(O)c1 [Compound 12, 3-Chloro-4-(2-hydroxy-4-propylphenoxy)benzonitrile] | 1.8 (≈ 6.26 µM) | > 0.8 µM | – | –
CCCc1ccc(Oc2cccc(CCO)c2)c(O)c1 [Compound 13, 2-[3-(2-Hydroxy-ethyl)phenoxy]-5-propylphenol] | 1.7 (≈ 6.24 µM) | – | – | IC50 [1]: 6 ± 1.5 µM
O=C(O)c1cc(Cl)ccc1Oc1ccccc1 [Compound 14, 5-Chloro-2-phenoxybenzoic acid] | – | – | 0 | –
CCCc1ccc(Oc2ccc(C(N)=O)cc2Cl)c(O)c1 [Compound 15, 3-Chloro-4-(2-hydroxy-4-propylphenoxy)benzamide] | 30.6 (≈ 100 µM) | 1.1 ± 0.1 µM | – | –
OCc1cc(Cl)ccc1Oc1ccccc1 [Compound 16, 5-Chloro-2-phenoxyphenylmethanol] | – | – | 1.8 | –
NC(=O)c1cc(Cl)ccc1Oc1ccccc1 [Compound 17, 5-Chloro-2-phenoxybenzamide] | – | – | 0 | –
CC(=O)Nc1ccc(Oc2ccc(Cl)cc2O)cc1 [Compound 18, N-[4-(4-Chloro-2-hydroxy-phenoxy)phenyl]acetamide] | 111 (≈ 400 µM) | – | 1.6 | –
CC(=O)Nc1ccccc1Oc1ccc(Cl)cc1O [Compound 19, N-[2-(4-Chloro-2-hydroxy-phenoxy)phenyl]acetamide] | 111 (≈ 400 µM) | – | 0 | –
Nc1ccc(Oc2ccc(Cl)cc2O)cc1 [Compound 20, 2-(4-Aminophenoxy)-5-chlorophenol] | 12 (≈ 50.9 µM) | 7 µM and 7.1 µM | – | –
CCCc1ccc(Oc2ccc(N)cc2)c(O)c1 [Compound 21, 2-(4-Aminophenoxy)-5-propylphenol] | > 97 | 8.8 ± 1 µM | – | –

Molecule | MIC (ΔANR B. anthracis; Bacillus anthracis) [µg/mL] | IC50 ([1]; IC50) | inhibition at 1 µM [1] [%] | further results
Cc1ccc(S(=O)(=O)Nc2ccc(Oc3ccc(Cl)cc3O)cc2)cc1 [Compound 22, 4-(4-Chloro-2-hydroxyphenoxy)-1-(4 methylphenylsulphonamido) benzene] | 4.9 (≈ 12.6 µM) | > 12 µM | – | –
CC(=O)Nc1ccc(Oc2ccc(Cl)cc2O)cn1 [Compound 24, N-[5-(4-Chloro-2-hydroxyphenoxy)-pyridin-2-yl]acetamide] | > 112 | 4.1 µM | – | –
OCC(O)Cc1ccc(Oc2ccccc2)c(O)c1 (stereo not drawn) [Compound 26, 3-(3-Hydroxy-4-phenoxyphenyl)propane-1,2-diol] | > 104 | – | 9.8 | –
CCCc1ccc(Oc2ccccc2)c(O)c1 [Compound 27, 2-Phenoxy-5-propylphenol] | 22.8 (≈ 99.9 µM) | > 0.8 µM | – | –
OCc1ccc(Oc2ccccc2)c(O)c1 [Compound 28, 5-Hydroxymethyl-2-phenoxyphenol] | 43 (≈ 199 µM) | – | 5 | –
CCCC(C)NCc1ccc(Oc2ccccc2)c(O)c1 (stereo not drawn) [Compound 29, 5-[(1-Methyl-butylamino)methyl]-2-phenoxyphenol] | > 109 | – | 0 | –
Oc1cc(CN2CCCCC2)ccc1Oc1ccccc1 [Compound 30, 2-Phenoxy-5-piperidin-1-ylmethylphenol] | > 113 | – | 0 | –
Oc1cc(CNCc2ccccc2)ccc1Oc1ccccc1 [Compound 31, 5-(Benzylaminomethyl)-2-phenoxyphenol] | > 122 | – | 7.9 | –
Oc1cc(Cl)ccc1Oc1ccc(Oc2ccc(Cl)cc2O)cc1 [Compound 32, 2-[4-(2-Hydroxy-4-Chlorophenoxy)phenoxy]-5-chlorophenol] | > 145 | – | 15.5 | –
Oc1cc(Cl)ccc1Oc1cccc(Oc2ccc(Cl)cc2O)c1 [Compound 33, 2-[3-(2-Hydroxy-4-chlorophenoxy)phenoxy]-5-chlorophenol] | 2.3 (≈ 6.33 µM) | – | 9.9 | –
CCCc1ccc(Oc2cccc(Oc3ccc(CCC)cc3O)c2)c(O)c1 [Compound 34, 2-[3-(2-Hydroxy-4-propylphenoxy)phenoxy]-5-Propylphenol] | 1.2 (≈ 3.17 µM) | – | 20.6 | –
CCCc1ccc(Oc2ccc(Oc3ccc(CCC)cc3O)cc2)c(O)c1 [Compound 35, 2-[4-(2-Hydroxy-4-propylphenoxy)phenoxy]-5-propylphenol] | > 151 | – | 10 | –
CCCc1ccc(Oc2cccc(-c3ccccc3)c2)c(O)c1 [Compound 36, 2-(Biphenyl-3-yloxy)-5-propylphenol] | 1.9 (≈ 6.24 µM) | – | – | IC50 [1]: 0.5 ± 0.1 µM
CCCc1ccc(Oc2cccc(C(=O)OC)c2)c(O)c1 [Compound 37, 3-(2-Hydroxy-4-propylphenoxy)benzoic acid methyl ester] | 3.6 (≈ 12.6 µM) | 2 ± 0.3 µM | – | –
CCCc1ccc(Oc2cccc(C(=O)O)c2)c(O)c1 [Compound 39, 3-(2-Hydroxy-4-propylphenoxy)benzoic acid] | 6.8 (≈ 25 µM) | – | 9.2 | –
CCCc1ccc(Oc2ccc(C(C)=O)cc2)c(O)c1 [Compound 40, 1-[4-(2-Hydroxy-4-propylphenoxy)phenyl]ethanone] | 13.5 (≈ 49.9 µM) | 0.8 ± 0.1 µM | – | –
CCCc1ccc(Oc2ccc(SC)cc2)c(O)c1 [Compound 41, 2-(4-Methylsulfanylphenoxy)-5-propylphenol] | 13.5 (≈ 49.2 µM) | 0.6 µM | – | –
CCCc1ccc(Oc2ccc(C(C)O)cc2)c(O)c1 (stereo not drawn) [Compound 42, 2-[4-(1-Hydroxyethyl)phenoxy]-5-propylphenol] | 54.5 (≈ 200 µM) | – | 17.1 | –
CCCc1ccc(Oc2ccc([S+](C)[O-])cc2)c(O)c1 (stereo not drawn) [Compound 43, 2-(4-Methanesulfinylphenoxy)-5-propylphenol] | 116 (≈ 399 µM) | 3.6 ± 0.3 µM | – | –
Clc1ccc(Oc2ccc(Cl)cc2Oc2cccnc2)c(Cl)c1 [Compound 52, 3-[5-Chloro-2-(2,4-dichlorophenoxy)phenoxy]pyridine] | – | – | 0.5 | –
